Biological target: T1, human Nav1.8 (Homo sapiens, UniProt Q9Y5Y9)
T1 construct: expressed in transfected cells; host or cells: HEK293 (HEK293-Nav1.8)
Experiment: Nav1.8 sodium channels assay, QPatch 48 HTX electrophysiology in HEK293-Nav1.8 cells
Type: cell-based
Conditions: at least one set of experimental runs; read-out: average pIC50 value against Nav1.8 (converted)
In short: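 HEK293 cells co-expressing human Nav1.8, Navβ1 and TREK1 were voltage-clamped on QPatch 48 HTX. The V1/2 protocol ran at 0.07 Hz: hold −100 mV, 20 ms to 0 mV, 8 s at −46 mV, 20 ms at −100 mV, then 20 ms at 0 mV (P2). P2 current was fitted over 6-8 concentrations for IC50, with vehicle wells used to correct for run-down.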

T1 sequence (Q9Y5Y9 whole entry): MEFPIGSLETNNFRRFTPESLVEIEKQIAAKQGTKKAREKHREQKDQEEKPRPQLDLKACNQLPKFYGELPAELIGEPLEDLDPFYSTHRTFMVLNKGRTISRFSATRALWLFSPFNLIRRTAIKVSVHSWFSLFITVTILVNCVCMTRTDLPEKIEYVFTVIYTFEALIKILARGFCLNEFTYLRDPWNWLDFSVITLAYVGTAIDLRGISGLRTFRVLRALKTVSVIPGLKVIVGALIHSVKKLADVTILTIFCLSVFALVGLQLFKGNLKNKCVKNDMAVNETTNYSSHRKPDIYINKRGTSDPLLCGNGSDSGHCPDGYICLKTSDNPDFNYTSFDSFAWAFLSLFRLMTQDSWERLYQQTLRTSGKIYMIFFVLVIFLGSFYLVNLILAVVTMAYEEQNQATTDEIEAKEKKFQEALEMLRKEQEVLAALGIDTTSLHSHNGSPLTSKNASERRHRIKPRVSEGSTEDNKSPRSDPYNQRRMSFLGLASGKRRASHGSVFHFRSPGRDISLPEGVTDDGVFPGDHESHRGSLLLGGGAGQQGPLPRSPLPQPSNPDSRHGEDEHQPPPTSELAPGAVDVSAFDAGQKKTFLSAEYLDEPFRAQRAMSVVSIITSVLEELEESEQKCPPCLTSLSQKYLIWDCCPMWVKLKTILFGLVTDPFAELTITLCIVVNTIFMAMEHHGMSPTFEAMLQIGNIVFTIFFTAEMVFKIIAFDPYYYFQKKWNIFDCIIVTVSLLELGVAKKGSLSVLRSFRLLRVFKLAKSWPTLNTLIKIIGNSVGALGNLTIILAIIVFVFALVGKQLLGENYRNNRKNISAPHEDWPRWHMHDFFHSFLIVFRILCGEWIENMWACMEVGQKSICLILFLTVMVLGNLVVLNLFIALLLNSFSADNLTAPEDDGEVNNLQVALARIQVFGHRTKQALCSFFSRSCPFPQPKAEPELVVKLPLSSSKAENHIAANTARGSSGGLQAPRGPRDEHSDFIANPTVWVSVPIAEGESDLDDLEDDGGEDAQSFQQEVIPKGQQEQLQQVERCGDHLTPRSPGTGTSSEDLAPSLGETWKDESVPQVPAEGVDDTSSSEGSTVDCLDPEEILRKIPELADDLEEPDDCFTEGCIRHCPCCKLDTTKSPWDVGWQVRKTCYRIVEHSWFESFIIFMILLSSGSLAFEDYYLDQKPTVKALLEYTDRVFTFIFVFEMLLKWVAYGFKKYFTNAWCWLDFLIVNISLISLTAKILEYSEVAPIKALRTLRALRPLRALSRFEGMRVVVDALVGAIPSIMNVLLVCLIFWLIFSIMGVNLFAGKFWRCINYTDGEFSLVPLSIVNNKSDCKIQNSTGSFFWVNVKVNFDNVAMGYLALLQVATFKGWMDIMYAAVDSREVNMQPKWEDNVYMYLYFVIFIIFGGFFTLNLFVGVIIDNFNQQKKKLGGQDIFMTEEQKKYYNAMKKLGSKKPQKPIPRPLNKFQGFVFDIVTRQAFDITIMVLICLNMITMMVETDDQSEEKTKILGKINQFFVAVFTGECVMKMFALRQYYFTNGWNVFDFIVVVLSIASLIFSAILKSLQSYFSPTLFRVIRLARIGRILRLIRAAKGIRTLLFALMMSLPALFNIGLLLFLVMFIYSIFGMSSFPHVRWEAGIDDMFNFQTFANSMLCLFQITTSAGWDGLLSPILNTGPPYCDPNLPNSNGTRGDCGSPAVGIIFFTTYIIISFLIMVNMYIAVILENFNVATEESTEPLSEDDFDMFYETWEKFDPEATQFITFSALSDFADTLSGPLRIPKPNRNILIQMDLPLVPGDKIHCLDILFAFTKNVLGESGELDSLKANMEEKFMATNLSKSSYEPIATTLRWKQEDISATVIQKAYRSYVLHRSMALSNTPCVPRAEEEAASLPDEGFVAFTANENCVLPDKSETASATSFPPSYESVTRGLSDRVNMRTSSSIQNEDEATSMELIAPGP
T1 sequence (Q07699 19-218 partner): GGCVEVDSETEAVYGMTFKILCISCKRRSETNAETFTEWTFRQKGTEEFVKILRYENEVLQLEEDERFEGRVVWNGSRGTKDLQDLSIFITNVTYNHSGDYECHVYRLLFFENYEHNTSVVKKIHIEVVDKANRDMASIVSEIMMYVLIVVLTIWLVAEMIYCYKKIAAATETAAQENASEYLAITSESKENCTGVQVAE

| SMILES | IC50 [nM] |
| --- | --- |
| Cc1cc(OC(F)(F)F)ccc1N1CN(c2ccc(=O)[nH]c2)C(=O)c2cc(C(F)(F)F)cnc21 [Example 119, 1-(2-methyl-4-(trifluorometh-oxy)phenyl)-3-(6-oxo-1,6-dihydropyridin-3-yl)-6-(trifluoromethyl)-2,3-dihydropyrido[2,3-d]pyrimidin-4(1H)-one] | 126 to 631 |
| Cc1[nH]c(=O)ccc1N1CN(c2ccc(F)cc2C(C)C)c2nc(C(F)F)ccc2C1=O [Example 122, 7-(difluoromethyl)-1-(4-fluoro-2-isopropylphenyl)-3-(2-methyl-6-oxo-1,6-dihydropyridin-3-yl)-2,3-dihydropyrido[2,3-d]pyrimidin-4(1H)-one] | ≤ 100 |
| Cc1cc(C#N)ccc1N1CN(c2ccc(=O)[nH]c2C)C(=O)c2cc(OC(F)(F)F)ccc21 [Example 123, 3-methyl-4-(3-(2-methyl-6-oxo-1,6-dihydropyridin-3-yl)-4-oxo-6-(trifluoromethoxy)-3,4-dihydroquinazolin-1(2H)-yl)benzonitrile] | ≤ 100 |
| Cc1cc(F)ccc1N1CN(c2ccc(=O)[nH]c2C)C(=O)c2cccc(Cl)c21 [Example 124, 8-chloro-1-(4-fluoro-2-methylphenyl)-3-(2-methyl-6-oxo-1,6-dihydropyridin-3-yl)-2,3-dihydroquinazolin-4(1H)-one] | 794 to 7940 |
| Cc1cc(F)ccc1N1CN(c2ccc(=O)[nH]c2C)C(=O)c2cccc(C)c21 [Example 125, 1-(4-fluoro-2-methylphenyl)-8-methyl-3-(2-methyl-6-oxo-1,6-dihydropyridin-3-yl)-2,3-dihydroquinazolin-4(1H)-one] | 794 to 7940 |
| Cc1[nH]c(=O)ccc1N1CN(c2cccc(C#N)c2C)c2ccc(Cl)cc2C1=O [Example 128, 3-(6-chloro-3-(2-methyl-6-oxo-1,6-dihydropyridin-3-yl)-4-oxo-3,4-dihydroquinazolin-1(2H)-yl)-2-methylbenzonitrile] | 126 to 631 |
| Cc1cc(F)ccc1N1CN(c2ccc(=O)[nH]c2C)C(=O)c2cc(F)c(OC(F)(F)F)cc21 [Example 129, 6-fluoro-1-(4-fluoro-2-methylphenyl)-3-(2-methyl-6-oxo-1,6-dihydropyridin-3-yl)-7-(trifluoromethoxy)-2,3-dihydroquinazolin-4(1H)-one] | ≤ 100 |
| Cc1cc(F)ccc1N1CN(c2ccc(=O)[nH]c2C)C(=O)c2c(C(F)F)cccc21 [Example 130, 5-(difluoromethyl)-1-(4-fluoro-2-methylphenyl)-3-(2-methyl-6-oxo-1,6-dihydropyridin-3-yl)-2,3-dihydroquinazolin-4(1H)-one] | 126 to 631 |
| Cc1cc(F)ccc1N1CN(c2cc(F)c(=O)[nH]c2C)C(=O)c2cc(C(F)(F)F)ccc21 [Example 131, 3-(5-fluoro-2-methyl-6-oxo-1,6-dihydropyridin-3-yl)-1-(4-fluoro-2-methylphenyl)-6-(trifluoromethyl)-2,3-dihydroquinazolin-4(1H)-one] | ≤ 100 |
| COc1cc(F)ccc1N1CN(c2ccc(=O)[nH]c2C)C(=O)c2cc(F)c(F)cc21 [Example 132, 6,7-difluoro-1-(4-fluoro-2-methoxyphenyl)-3-(2-methyl-6-oxo-1,6-dihydropyridin-3-yl)-2,3-dihydroquinazolin-4(1H)-one] | 126 to 631 |
| Cc1ccc(N2CN(c3ccc(=O)[nH]c3C)C(=O)c3cc(Cl)ccc32)c(O)c1 [Example 133, 6-chloro-1-(2-hydroxy-4-methylphenyl)-3-(2-methyl-6-oxo-1,6-dihydropyridin-3-yl)-2,3-dihydroquinazolin-4(1H)-one] | 794 to 7940 |
| COc1cc(C)ccc1N1CN(c2ccc(=O)[nH]c2C)C(=O)c2cc(Cl)ccc21 [Example 134, 6-chloro-1-(2-methoxy-4-methylphenyl)-3-(2-methyl-6-oxo-1,6-dihydropyridin-3-yl)-2,3-dihydroquinazolin-4(1H)-one] | 126 to 631 |
| Cc1cc(F)ccc1N1CN(c2cc[nH]c(=O)c2)C(=O)c2c1ccc(Cl)c2F [Example 136, 6-chloro-5-fluoro-1-(4-fluoro-2-methylphenyl)-3-(2-oxo-1,2-dihydropyridin-4-yl)-2,3-dihydroquinazolin-4(1H)-one] | 794 to 7940 |
| Cc1[nH]c(=O)ccc1N1CN(c2ccc(F)cc2C(C)C)c2cc(C(F)F)ccc2C1=O [Example 137, 7-(difluoromethyl)-1-(4-fluoro-2-isopropylphenyl)-3-(2-methyl-6-oxo-1,6-dihydropyridin-3-yl)-2,3-dihydroquinazolin-4(1H)-one] | ≤ 100 |
| CCc1[nH]c(=O)ccc1N1CN(c2ccc(F)cc2C(C)C)c2ccc(Cl)cc2C1=O [Example 139, 6-chloro-3-(2-ethyl-6-oxo-1,6-dihydropyridin-3-yl)-1-(4-fluoro-2-isopropylphenyl)-2,3-dihydroquinazolin-4(1H)-one] | ≤ 100 |
| Cc1[nH]c(=O)ccc1N1CN(c2ccc(F)cc2C(C)C)c2ncc(F)cc2C1=O [Example 141, 6-fluoro-1-(4-fluoro-2-isopropylphenyl)-3-(2-methyl-6-oxo-1,6-dihydropyridin-3-yl)-2,3-dihydropyrido[2,3-d]pyrimidin-4(1H)-one] | 126 to 631 |
| Cc1cc(F)ccc1N1CN(c2ccc(=O)[nH]c2C)C(=O)c2cc(F)ccc21 [Example 143, 6-fluoro-1-(4-fluoro-2-methylphenyl)-3-(2-methyl-6-oxo-1,6-dihydropyridin-3-yl)-2,3-dihydroquinazolin-4(1H)-one] | ≤ 100 |

Results, then the compound that gave them:

| IC50 [nM] | SMILES |
| --- | --- |
| ≤ 100 | Cc1[nH]c(=O)ccc1N1CN(c2cccc(F)c2C)c2ccc(C(F)(F)F)cc2C1=O [Example 120, 1-(3-fluoro-2-methylphenyl)-3-(2-methyl-6-oxo-1,6-dihydropyridin-3-yl)-6-(trifluoromethyl)-2,3-dihydroquinazolin-4(1H)-one] |
| 126 to 631 | Cc1cc(F)cc(F)c1N1CN(c2ccc(=O)[nH]c2C)C(=O)c2cc(C(F)(F)F)ccc21 [Example 121, 1-(2,4-difluoro-6-methylphenyl)-3-(2-methyl-6-oxo-1,6-dihydropyridin-3-yl)-6-(trifluoromethyl)-2,3-dihydroquinazolin-4(1H)-one] |
| ≤ 100 | COc1ccc(N2CN(c3ccc(=O)[nH]c3C)C(=O)c3cc(C(F)(F)F)ccc32)c(C)c1 [Example 126, 1-(4-methoxy-2-methylphenyl)-3-(2-methyl-6-oxo-1,6-dihydropyridin-3-yl)-6-(trifluoromethyl)-2,3-dihydroquinazolin-4(1H)-one] |
| 126 to 631 | Cc1cc(O)ccc1N1CN(c2ccc(=O)[nH]c2C)C(=O)c2cc(C(F)(F)F)ccc21 [Example 127, 1-(4-hydroxy-2-methylphenyl)-3-(2-methyl-6-oxo-1,6-dihydropyridin-3-yl)-6-(trifluoromethyl)-2,3-dihydroquinazolin-4(1H)-one] |
| 794 to 7940 | Cc1cccc(F)c1N1CN(c2ccc(=O)[nH]c2C)C(=O)c2cc(C(F)(F)F)ccc21 [Example 135, 1-(2-fluoro-6-methylphenyl)-3-(2-methyl-6-oxo-1,6-dihydropyridin-3-yl)-6-(trifluoromethyl)-2,3-dihydroquinazolin-4(1H)-one] |
| ≤ 100 | Cc1cc(F)ccc1N1CN(c2ccc(=O)[nH]c2C)C(=O)c2ccc(C(F)F)cc21 [Example 138, 7-(difluoromethyl)-1-(4-fluoro-2-methylphenyl)-3-(2-methyl-6-oxo-1,6-dihydropyridin-3-yl)-2,3-dihydroquinazolin-4(1H)-one] |
| 126 to 631 | Cc1[nH]c(=O)ccc1N1CN(c2ccc(F)c(C#N)c2C)c2ccc(C(F)(F)F)cc2C1=O [Example 140, 6-fluoro-2-methyl-3-(3-(2-methyl-6-oxo-1,6-dihydropyridin-3-yl)-4-oxo-6-(trifluoromethyl)-3,4-dihydroquinazolin-1(2H)-yl)benzonitrile] |
| ≤ 100 | Cc1[nH]c(=O)ccc1N1CN(c2ccc(F)cc2Br)c2ccc(C(F)(F)F)cc2C1=O [Example 142, 1-(2-bromo-4-fluorophenyl)-3-(2-methyl-6-oxo-1,6-dihydropyridin-3-yl)-6-(trifluoromethyl)-2,3-dihydroquinazolin-4(1H)-one] |
| 126 to 631 | O=C1c2ccc(C(F)(F)F)cc2N(c2ccc(F)cc2)CN1c1ccc(=O)[nH]c1 [Example 144, 1-(4-Fluorophenyl)-3-(6-oxo-1,6-dihydropyridin-3-yl)-7-(trifluoromethyl)-2,3-dihydroquinazolin-4(1H)-one] |
| 126 to 631 | Cc1cc(F)ccc1N1CN(c2cnc(=O)[nH]c2)C(=O)c2ccc(C(F)(F)F)cc21 [Example 145, 1-(4-fluoro-2-methylphenyl)-3-(2-oxo-1,2-dihydropyrimidin-5-yl)-7-(trifluoromethyl)-2,3-dihydroquinazolin-4(1H)-one] |
| 126 to 631 | Cc1cc(Br)ccc1N1CN(c2ccc(=O)[nH]c2)C(=O)c2ccc(C(F)(F)F)cc21 [Example 146, 1-(4-bromo-2-methylphenyl)-3-(6-oxo-1,6-dihydropyridin-3-yl)-7-(trifluoromethyl)-2,3-dihydroquinazolin-4(1H)-one] |
| 126 to 631 | Cc1[nH]c(=O)ccc1N1CN(c2ccc(F)cc2)c2cc(C(F)(F)F)ccc2C1=O [Example 147, 1-(4-fluorophenyl)-3-(2-methyl-6-oxo-1,6-dihydropyridin-3-yl)-7-(trifluoromethyl)-2,3-dihydroquinazolin-4(1H)-one] |
| ≤ 100 | Cc1cc(C#N)ccc1N1CN(c2ccc(=O)[nH]c2C)C(=O)c2ccc(C(F)(F)F)cc21 [Example 148, 3-methyl-4-(3-(2-methyl-6-oxo-1,6-dihydropyridin-3-yl)-4-oxo-7-(trifluoromethyl)-3,4-dihydroquinazolin-1(2H)-yl)benzonitrile] |
| 126 to 631 | Cc1cc(F)ccc1N1CN(c2ccc(=O)[nH]c2C)C(=O)c2ccc(C(F)(F)F)nc21 [Example 149, 1-(4-fluoro-2-methylphenyl)-3-(2-methyl-6-oxo-1,6-dihydropyridin-3-yl)-7-(trifluoromethyl)-2,3-dihydropyrido[2,3-d]pyrimidin-4(1H)-one] |

Reference: patent publication US20230103791A1 (GLAXOSMITHKLINE INTELLECTUAL PROPERTY DEVELOPMENT LIMITED, priority 2019, published 2023)
